Blank lines part the entries; values can stand above or below the compound they belong to.
What was measured:
β-adrenergic receptors = experiment: isoproterenol-induced intracellular cAMP synthesis in rat C6 glioma; format: cell-based; details: cAMP induced by 5 μM (−) isoproterenol, 30 min; for Effect: rat C6 glioma; for IC50: read-out: I50
Protocol: Rat C6 glioma (ATCC N° CCL107) was cultivated in monolayer in serum-free chemically defined medium containing Ham's F10/minimal essential medium (1:1 vol/vol), 2 mM L-glutamine, 1% (vol/vol) minimal essential medium vitamins (100×), 1% (vol/vol) minimal essential medium nonessential amino acids (100×), 100 U/ml penicillin, 100 μg/ml streptomycin and 30 nM sodium selenite. Incubation was at 37° C. in a humidified atmosphere. Assays were performed in the logaritmic growth phase at a density of 2.5×10^5 cells/cm^2. Intracellular cAMP synthesis was induced by addition of 5 μM (−) isoproterenol. After 30 min incubation at 37° C. the medium was removed and the cellular amount of cAMP determined using the cAMP-enzyme immunoassay kit of Amersham. The IC50 is determined from a dose-response curve in duplicate. The effect of seven purine-analogs was measured after simultaneous addition with isoproterenol.
As P2Y1-like and A2 purinergic receptors, negatively and positively coupled to adenylate cyclase respectively, are present on rat C6 glioma the modulation of the synthesis of cAMP may be due to inhibition of the activation of β-adrenergic receptors by isoproterenol or to activation of purinergic receptors.

HIV-2 = experiment: anti-HIV-2 activity in CEM cells; format: cell-based
Protocol: The infected cell cultures were incubated at 37° C. for 5 days in a humidified CO2 incubator. The cytopathicity of the virus was examined by determination of MT-4 cell viability by trypan blue dye staining.

IκB-α = IκB-α kinase-inhibitory activity; format: biochemical
Text: Modification of 2,6,9-trisubstituted purines by a catechol-like substituent at R6 leads to an increase in cdk inhibitory activity of the tested compounds.

[1] = system: T-lymphoblastic leukemia cell line CEM; experiment: MTT cytotoxicity assay, CEM; format: cell-based, human; details: 72 hours (TCS50 in the method)
Text: (§1) One of the parameters used as the basis for colorimetric assays is the metabolic activity of viable cells. For example, a microtiter assay, which uses the tetrazolium salt MTT, is now widely used to quantitate cell proliferation and cytotoxicity. For instance, this assay is used in drug screening programs and in chemosensitivity testing. Because only metabolically active cells cleave tetrazolium salts, these assays detect viable cells exclusively. In the case of MTT assay, yellow soluble tetrazolium salt is reduced to coloured water-insoluble formazan salt. After it is solubilized, the formazan formed can easily and rapidly be quantified in a conventional ELISA plate reader at 570 nm (maximum absorbance). The quantity of reduced formazan corresponds to number of vital cells in the culture. Human T-lymphoblastic leukemia cell line CEM; promyelocytic HL-60 and monocytic U937 leukemias; breast carcinoma cell lines MCF-7, BT549, MDA-MB-231; glioblastoma U87MG cells; cervical carcinoma cells HELA; sarcoma cells U20S and Saos2; hepatocellular carcinoma HepG2; mouse immortalized bone marrow macrophages B2.4 and B10A.4; P388D1 and L1210 leukemia; B16 and B16F10 melanomas were used for routine screening of the compounds according to the invention. The cells were maintained in Nunc/Corning 80 cm^2 plastic tissue culture flasks and cultured in cell culture medium (DMEM with 5 g/l glucose, 2 mM glutamine, 100 U/ml penicillin, 100 μg/ml streptomycin, 10% fetal calf serum and sodium bicarbonate).
(§2) The cell suspensions that were prepared and diluted according to the particular cell type and the, expected target cell density (2500-30000 cells per well based on cell growth characteristics) were added by pipette (80 μl) into 96-well microtiter plates. Inoculates were allowed a pre-incubation period of 24 hours at 37° C. and 5% CO2 for stabilisation. Four-fold dilutions of the intended test concentration were added at time zero in 20 μl aliquots to the microtiter plate wells. Usually, test compound was evaluated at six 4-fold dilutions. In routine testing, the highest well concentration was 266.7 μM, but it can be the matter of change dependent on the agent. All drug concentrations were examined in duplicates. Incubations of cells with the test compounds lasted for 72 hours at 37° C., in 5% CO2 atmosphere and 100% humidity. At the end of incubation period, the cells were assayed by using the MTT. Ten microliters of the MTT stock solution were pipetted into each well and incubated further for 1-4 hours. After this incubation period, formazan was solubilized by addition of 100 μl/well of 10% SDS in water (pH=5.5) followed by further incubation at 37° C. overnight. The optical density (OD) was measured at 540 nm with the Labsystem iEMS Reader MF (UK). The tumour cell survival (TCS) was calculated using the following equation: TCS=(ODdrug exposed well/mean ODcontrol wells)×100%. The TCS50 value, the drug concentration lethal to 50% of the tumour cells, was calculated from the obtained dose response curves.
(§3) The cytoxicity of novel compounds was tested on panel of cell lines of different histogenetic and species origin (Table 7). Equal activities were found in all tumour cell lines tested. […] Importantly, this observation distinguishes the purine derivatives of the invention from flavopiridol and related compounds, as their biological activity is dependent on p53 status.

B16 melanoma = experiment: MTT cytotoxicity assay, B16; format: cell-based, mouse; details: 72 hours (TCS50 in the method)
Text: as §1, §2, §3

CDC2 = target: T1, CDC2 (Homo sapiens, UniProt P06493); experiment: p34cdc2 (CDC2) kinase inhibition assay, histone H1 substrate; format: biochemical
T1 construct: made in house; host or cells: Sf9 insect cells, baculovirus co-infection
Protocol: Cyclin-dependent kinases (p34^cdc2, p33^cdk2, p33^cdk4 and cyclins (cyclin B, E and DI) are produced in Sf9 insect cells coinfected with appropriate baculoviral constructs. The cells are harvested 68-72 hrs post infection in lysis buffer for 30 min on ice and the soluble fraction is recovered by centrifugation at 14.000 g for 10 min. The protein extract is stored at −80° C.
To carry out experiments on kinetics under linear conditions, the final point test system for kinase activity measurement is used. The kinase is added to the reaction mixture in such a way that linear activity is obtained with respect to the concentration of enzyme and with respect to time.
Inhibition of p33^cdk4 kinase is determined with Rb-GST (0.2 mg/ml) as the substrate. Kinase activity is determined at 30° C. in kinase buffer.
Tested compounds are usually dissolved to 100 mM solutions in DMSO, the final concentration of DMSO in reaction mixture never exceeds 1%. The controls contain suitable dilutions of DMSO. After 10 min, the addition of 3×SDS sample buffer stops the incubations. […] The measurement of kinase activity is done using digital image analysis. The kinase activity is expressed as a percentage of maximum activity, the apparent inhibition constants are determined by graphic analysis. Kinase buffer: 50 mM Hepes pH 7.4, 10 mM MgCl21 5 mM EGTA, 10 mM 2-glycerolphosphate,

[2] = system: PHA-stimulated lymphocytes (PBMC); experiment: cell number of PHA-stimulated lymphocytes (PBMC), flow cytometry; format: cell-based, human; details: Homo sapiens, Lymphocyte; 96 hours, in the presence of IL-2; read-out: Lymphocytes IC50
Protocol: Human peripheral blood mononuclear cells were isolated by density gradient (Ficoll-Hypaque) (LSM, ICN Biomedicals Inc.). PBMC were stimulated with 5 μg/ml phytohemaglutinin A (PHA) (Sigma) during 24-48 hours in IMDM supplemented with 10% FCS (IMDM/10% FCS) at 37° C. After washing off the PHA, PBMC were incubated with interleukin-2 (IL-2) (10 U/ml) (Genzyme).
(§4) Cells were plated at 10000 per well in 200 μl IMDM medium and incubated with 0-50 μM of the compounds of the invention (Table 5), by addition of the drugs directly to the culture medium and incubated at 37° C. for 96 hours. Absolute cell number was determined by addition of a known concentration of Fluoresbrite microspheres (FITC) (Polysciences, Inc.). The absolute number of cells per well was calculated as: {(total number of beads added per well)/(number of beads measured)}×(number of measured cells in the gate of interest). All analyses were performed with a FACScan (BD), using CELLQuest software (Becton Dickinson).
The novel compounds were tested for cytotoxicity on PHA-stimulated lymphocytes (PBMC), as one of the normal counterparts of the cell lines. Cells were grown for 96 hours in the presence of IL-2 and different concentrations of the novel compounds and cell number was counted on the flow cytometer.

[3] = system: T-lymphocyte leukemia Molt3 cell line; experiment: cell growth of Molt3 cell line, flow cytometric cell count; format: cell-based, human; details: Homo sapiens, MOLT-3; 96 hours of culture
Protocol: Cell lines: Human leukemic cell lines were obtained from the American Type Culture Collection (ATCC, Rockville, Md., USA). They were cultured in Iscove's Modified Dulbecco's Medium (IMDM) supplemented with 10% heat inactivated fetal calf serum (FCS), 200 U/ml penicillin, 200 μg/ml streptomycin and 1 μg/ml amphotericin B. Cells were cultured in a 5% CO2-95% air fully humidified incubator. For effects on clonogenic output, 1000 cells/well were plated in duplicate in methylcellulose (0.9%), supplemented with 20% FCS and cultured for 14 days.
as §4
The response of the myeloid leukemia KG1 and T-lymphocyte leukemia Molt3 cell lines to the cytostatic effect of the novel compounds was determined using the above-mentioned standardized bead suspension that was used to determine the absolute cell number by flow cytometric (FCM) measurement. Cells were grown in the presence of increasing concentrations of the compounds of the invention.

[4] = system: CD34+ hematopoietic progenitors (HPC) from adult bone marrow; experiment: myeloid colony-forming unit (CFU) assay; format: cell-based, human
[5] = system: adult bone marrow CD34+CD38- cells; experiment: pre-CFU assay; format: cell-based, human; details: Homo sapiens, 336 h; 14 day liquid culture, total clonogenic output after secondary methylcellulose culture
Text: […]. Cells with low-to-medium forward and low side scatter, highly positive green (CD34) fluorescence, and an orange (CD38) fluorescence signal lower than the mean fluorescence of cells labeled with an irrelevant isotype-matched control antibody+2 standard deviations were retained as CD34^+CD38^− cells and used in pre-CFU assays.
Pre-CFU assays were initiated by performing liquid cultures of CD34^+CD38^− cells in duplicate in 96-well flat-bottomed plates in IMDM/10% FCS, 1% bovine serum albumin (BSA), 100 U/ml IL-1, 200 U/ml IL-6, 30 U/ml IL-3 and 100 ng/ml stem cell factor (SCF). Pre-CFU cultures were initiated with 500 CD34^+CD38^− cells/well (200 μl). After 14 days of culture at 37° C. in 7.5% O2 and 5% CO2 in a fully humidified incubator, the number of cells in each well was counted. Subsequently, the cells were harvested, washed three times in IMDM/10% FCS, and plated in duplicate at 500 cells/well (1000 μl) in secondary methylcellulose CFU cultures as described for CFU assays.
Pre-CFU were cultured starting from adult bone marrow CD34^+CD38^− cells, that had been isolated using the FCM cell sorter. Novel compounds were added at different concentrations to the primary 14 day liquid culture. IC50 was calculated from dose-response curves from total clonogenic output after secondary methylcellulose culture (Table 5).

[6] = system: myeloid leukemia KG1 cell line; experiment: cell growth of KG1 cell line, flow cytometric cell count
normal human lymphocytes = experiment: concanavalin A induced lymphocyte proliferation, [3H]-TdR incorporation; format: cell-based; details: 72 hours, read-out: ED50 (the source's name)
Protocol: Human heparinized peripheral blood was obtained from healthy volunteers by cubital vein punction. The blood was diluted in PBS (1:3) and mononuclear cells were separated by centrifugation in Ficoll-Hypaque density gradient (Pharmacia, 1.077 g/ml) at 2200 rpm for 30 minutes. Following centrifugation, lymphocytes were washed in PBS and resuspended in cell culture medium (RMPI 1640, 2 mM glutamine, 100 U/ml penicillin, 100 μg/ml streptomycin, 10% fetal calf serum and sodium bicarbonate).
The cells were diluted at target density of 1100000 cells/ml and were added by pipette (180 μl) into 96/well microtiter plates. Four-fold dilutions of the intended test concentration were added at time zero in 20 μl aliquots to the microtiter plate wells. Usually, test compound was evaluated at six 4-fold dilutions. In routine testing, the highest well concentration was 266.7 μM. All drug concentrations were examined in duplicates. All wells with exception of unstimulated controls were activated with 50 μl of concanavalin A (25 μg/ml). Incubations of cells with test compounds lasted for 72 hours at 37° C., in 5% CO2 atmosphere and 100% humidity. At the end of incubation period, the cells were assayed by using the [^3H]-TdR:
Cell cultures were incubated with […] (20 μl of stock solution 500 μCi/ml) per well for 6 hours at 37° C. and 5% CO2. The automated cell harvester was used to lyse cells in water and adsorb the DNA onto glass-fiber filters in the format of microtiter plate. The DNA incorporated [^3H]-TdR was retained on the filter while unincorporated material passes through. The filters were dried at room temperature overnight, sealed into a sample bag with 10-12 ml of scintillant. The amount of [^3H]-TdR present in each filter (in cpm) was determined by scintillation counting in a Betaplate liquid scintillation counter. The effective dose of immunosuppressant (ED) was calculated using the following equation: ED=(cpmdrug exposed well/mean cpmcontrol wells)×100%. The EDs50 value, the drug concentration inhibiting proliferation of 50% of lymphocytes, was calculated from the obtained dose response curves.
To evaluate immunosuppressive activity of substituted adenines, their ability to inhibit polyclonal mitogen induced proliferation of normal human lymphocytes was analyzed (Table 8). […] Effective immunosuppressive dose of new derivatives under in vitro conditions was close to 1-20 μM.

T1 sequence (P06493 whole entry, species assumed): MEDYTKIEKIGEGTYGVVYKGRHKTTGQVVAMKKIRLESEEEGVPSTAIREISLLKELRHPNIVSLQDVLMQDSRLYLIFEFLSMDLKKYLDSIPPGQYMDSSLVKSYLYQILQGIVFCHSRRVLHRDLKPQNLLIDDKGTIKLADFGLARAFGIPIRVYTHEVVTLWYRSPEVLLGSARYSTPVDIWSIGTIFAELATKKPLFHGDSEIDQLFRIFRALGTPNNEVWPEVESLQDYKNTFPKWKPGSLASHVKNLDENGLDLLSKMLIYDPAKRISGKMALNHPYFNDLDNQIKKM
T1 sequence (P14635 whole entry partner, species assumed): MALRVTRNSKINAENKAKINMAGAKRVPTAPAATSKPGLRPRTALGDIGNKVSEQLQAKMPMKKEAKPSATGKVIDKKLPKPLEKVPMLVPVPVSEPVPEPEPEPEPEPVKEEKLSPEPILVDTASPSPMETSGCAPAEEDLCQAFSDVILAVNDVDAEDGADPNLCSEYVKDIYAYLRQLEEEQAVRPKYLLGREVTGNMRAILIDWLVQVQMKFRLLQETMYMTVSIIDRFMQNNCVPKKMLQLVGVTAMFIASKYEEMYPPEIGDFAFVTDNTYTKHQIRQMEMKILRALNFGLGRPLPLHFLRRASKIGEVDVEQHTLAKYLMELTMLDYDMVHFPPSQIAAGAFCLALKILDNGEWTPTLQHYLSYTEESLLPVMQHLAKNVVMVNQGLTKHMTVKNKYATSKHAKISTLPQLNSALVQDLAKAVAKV

SMILES: Nc1nc(NCc2ccccc2)c2ncn(CCOCP(=O)(O)O)c2n1 [PME-derivatives: Benzylamino, reference compound]
HIV-2 CEM IC50 (HIV-2): >20 mg/L

SMILES: CC[C@H](CO)Nc1nc(NCc2ccc(O)c(O)c2)c2ncn(C(C)C)c2n1
IC50 (IκB-α; Table 3): 1250 nM | IC50 [1]: 8 µM | IC50 (B16 melanoma): 9 µM

SMILES: CC(C)[C@H](CO)Nc1nc(NC(CO)c2ccccc2)c2ncn(C(C)C)c2n1 (some centres unmarked)
IC50 (CDC2; Table 3, unit nM): 540 nM | IC50 (IκB-α; Table 3, unit nM): 670 nM

SMILES: Cn1cnc2c(NC(CO)c3ccccc3)nc(NCCO)nc21 (racemic)
IC50 (CDC2; Table 3): 5600 nM | IC50 (IκB-α; Table 3): 13700 nM

SMILES: CN(CCc1ccc(O)c(O)c1)c1nc(NCCO)nc2c1ncn2C
IC50 (CDC2; Table 3): 10200 nM | IC50 (IκB-α; Table 3): 25400 nM

SMILES: CC(C)[C@H](CO)Nc1nc(N(C)CCc2ccc(O)c(O)c2)c2ncn(C(C)C)c2n1
IC50 (CDC2; Table 3, unit nM): 390 nM | IC50 (IκB-α; Table 3, unit nM): 460 nM | IC50 [1]: 8 µM | IC50 (B16 melanoma): 9 µM | EC50 (normal human lymphocytes): 0.54 µM

SMILES: CC(C)[C@H](CO)Nc1nc(NCc2ccc(O)c(O)c2)c2ncn(C(C)C)c2n1
IC50 (CDC2; Table 3, unit nM): 250 nM | IC50 (IκB-α; Table 3, unit nM): 320 nM

SMILES: CC[C@H](CO)Nc1nc(NC(CO)c2ccccc2)c2ncn(C(C)C)c2n1 (some centres unmarked)
IC50 (IκB-α; Table 3): 2150 nM | IC50 [1]: 15 µM | IC50 (B16 melanoma): 13.5 µM | EC50 (normal human lymphocytes): 12 µM

More lines, main results first:

Effect (β-adrenergic receptors): inactive
SMILES: CC(O)CNc1nc(NC(CO)c2ccccc2)c2ncn(C(C)C)c2n1 (centres unmarked) [P39]

Effect (β-adrenergic receptors): inhibition | IC50 (β-adrenergic receptors): 45 ± 5 µM
SMILES: CC(C)C(CO)Nc1nc(NCc2ccccc2)c2ncn(C(C)C)c2n1 (centres unmarked) [P30]

IC50 (CDC2; Table 5, CDC2 activity in cell free system): 21000 nM | Effect (β-adrenergic receptors): inhibition | IC50 (β-adrenergic receptors): 45 ± 5 µM | IC50 [3]: 19.3 ± 2.3 µM | IC50 ([4]; Homo sapiens, 336 h, 14 days, methylcellulose, total colony output): 37 µM | IC50 [5]: 20 µM | IC50 ([6]; Homo sapiens, KG-1, 96 h, read-out: KGI IC50): 16 ± 1.7 µM
SMILES: CC(C)n1cnc2c(NCc3ccccc3)nc(NCCCN)nc21 [P12, 2-(3-aminopropylamino)-6-benzylamino-9-isopropylpurine]
CC50 [2]: 8 ± 1.2 µM | output of the different types of myeloid colonies (CFU-E, CFU-G and CFU-M) ([4]; scored differentially): significantly lower colony output | cell number after 6 hours of exposure, wash and 7 days in drug-free medium ([6]; KG1, compared to control without novel compounds): (some) recovery of cell number

Effect (β-adrenergic receptors): inactive
SMILES: CC[C@@H](CO)Nc1nc(N[C@@H](CO)c2ccccc2)c2ncn(C(C)C)c2n1 [P38]

From patent US20030187261A1, “Purine derivatives, process for their preparation and use thereof” (priority 2000, published 2003)
